≈ marks a conversion by molar mass, not a printed value.
Legend:
[1] = system: B. subtilis ATCC 6633; assay: MIC, double-microdilution, B. subtilis ATCC 6633; type: cell-based; settings: Table 4
[2] = system: E. coli AG100A; assay: MIC, double-microdilution, E. coli AG100A; type: cell-based, Escherichia coli; settings: Table 4; kanamycin resistant, APH(3′)-I
[3] = system: E. coli ATCC 25922; assay: MIC, double-microdilution, E. coli ATCC 25922; type: cell-based, Escherichia coli; settings: Table 4
[4] = system: E. coli R477-100; assay: MIC, double-microdilution, E. coli R477-100; type: cell-based, Escherichia coli; settings: Table 4
[5] = system: E. coli AG100B; assay: MIC, double-microdilution, E. coli AG100B; type: cell-based, Escherichia coli; settings: Table 4; kanamycin resistant, APH(3′)-I
Text: AG100B and AG100A are two kanamycin resistant Escherichia coli strains expressing APH(3′)-I aminoglycoside resistance enzyme.

[6] = system: MRSA ATCC 43300; assay: microbe, parasite or virus in culture; type: cell-based, S. aureus; settings: Table 4

Compound: NCC1OC(OC2C(C(=O)Nc3ccc(-c4cn(CCCCCN5CCN(c6cc7c(cc6F)c(=O)c(C(=O)O)cn7C6CC6)CC5)nn4)cc3)OC(OC3C(O)C(N)CC(N)C3OC3OC(CN)C(O)C(O)C3N)C2O)C(N)C(O)C1O (stereo not drawn) [Compound 1d, N-(4-(1-(2-(ciprofloxacin)pentyl)-1H-1,2,3-triazol-4-yl)-5″-phenyl)neomycin carboxamide]
- MIC B. subtilis ATCC 6633 [1]: 12 µg/mL (≈ 10.3 µM)
- MIC E. coli AG100A [2]: 1.5 µg/mL (≈ 1.28 µM)
- MIC E. coli ATCC 25922 [3]: 6 µg/mL (≈ 5.13 µM)
- MIC E. coli R477-100 [4]: 12 µg/mL (≈ 10.3 µM)
- MIC E. coli AG100B [5]: 24 µg/mL (≈ 20.5 µM)
- MIC MRSA ATCC 43300 [6]: 48 µg/mL (≈ 41 µM)

Compound: NCC1OC(OC2C(C(=O)NCc3cn(CCCN4CCN(c5cc6c(cc5F)c(=O)c(C(=O)O)cn6C5CC5)CC4)nn3)OC(OC3C(O)C(N)CC(N)C3OC3OC(CN)C(O)C(O)C3N)C2O)C(N)C(O)C1O (stereo not drawn) [Compound 1k, N-((1-(4-(ciprofloxacin)propyl)-1H-1,2,3-triazol-4-yl)-5″-methyl)neomycin carboxamide]
- MIC B. subtilis ATCC 6633 [1]: 6 µg/mL (≈ 5.55 µM)
- MIC E. coli AG100A [2]: 1.5 µg/mL (≈ 1.39 µM)
- MIC E. coli ATCC 25922 [3]: 6 µg/mL (≈ 5.55 µM)
- MIC E. coli R477-100 [4]: 12 µg/mL (≈ 11.1 µM)
- MIC E. coli AG100B [5]: 12 µg/mL (≈ 11.1 µM)
- MIC MRSA ATCC 43300 [6]: 48 µg/mL (≈ 44.4 µM)

Compound: NCC1OC(OC2C(C(=O)Nc3ccc(-c4cn(CCCCN5CCN(c6cc7c(cc6F)c(=O)c(C(=O)O)cn7C6CC6)CC5)nn4)cc3)OC(OC3C(O)C(N)CC(N)C3OC3OC(CN)C(O)C(O)C3N)C2O)C(N)C(O)C1O (stereo not drawn) [Compound 1c, N-(4-(1-(2-(ciprofloxacin)butyl)-1H-1,2,3-triazol-4-yl)-5″-phenyl)neomycin carboxamide]
- MIC B. subtilis ATCC 6633 [1]: 6 µg/mL (≈ 5.19 µM)
- MIC E. coli AG100A [2]: 1.5 µg/mL (≈ 1.3 µM)
- MIC E. coli ATCC 25922 [3]: 6 µg/mL (≈ 5.19 µM)
- MIC E. coli R477-100 [4]: 12 µg/mL (≈ 10.4 µM)
- MIC E. coli AG100B [5]: 24 µg/mL (≈ 20.8 µM)
- MIC MRSA ATCC 43300 [6]: 24 µg/mL (≈ 20.8 µM)

Compound: NCC1OC(OC2C(C(=O)NCc3cn(CCCCCN4CCN(c5cc6c(cc5F)c(=O)c(C(=O)O)cn6C5CC5)CC4)nn3)OC(OC3C(O)C(N)CC(N)C3OC3OC(CN)C(O)C(O)C3N)C2O)C(N)C(O)C1O (stereo not drawn) [Compound 1l, N-((1-(4-(ciprofloxacin)pentyl)-1H-1,2,3-triazol-4-yl)-5″-methyl)neomycin carboxamide]
- MIC B. subtilis ATCC 6633 [1]: 12 µg/mL (≈ 10.8 µM)
- MIC E. coli AG100A [2]: 1.5 µg/mL (≈ 1.35 µM)
- MIC E. coli ATCC 25922 [3]: 6 µg/mL (≈ 5.41 µM)
- MIC E. coli R477-100 [4]: 24 µg/mL (≈ 21.7 µM)
- MIC E. coli AG100B [5]: 24 µg/mL (≈ 21.7 µM)
- MIC MRSA ATCC 43300 [6]: 48 µg/mL (≈ 43.3 µM)

Compound: NCC1OC(OC2C(C(=O)Nc3ccc(-c4cn(CCOCCN5CCN(c6cc7c(cc6F)c(=O)c(C(=O)O)cn7C6CC6)CC5)nn4)cc3)OC(OC3C(O)C(N)CC(N)C3OC3OC(CN)C(O)C(O)C3N)C2O)C(N)C(O)C1O (stereo not drawn) [Compound 1g, N-(4-(1-(2-(2-(ciprofloxacin)ethoxy)ethyl)-1H-1,2,3-triazol-4-yl)-5″-phenyl)neomycin carboxamide]
- MIC B. subtilis ATCC 6633 [1]: 12 µg/mL (≈ 10.2 µM)
- MIC E. coli AG100A [2]: 1.5 µg/mL (≈ 1.28 µM)
- MIC E. coli ATCC 25922 [3]: 12 µg/mL (≈ 10.2 µM)
- MIC E. coli R477-100 [4]: 24 µg/mL (≈ 20.5 µM)
- MIC E. coli AG100B [5]: 12 µg/mL (≈ 10.2 µM)
- MIC MRSA ATCC 43300 [6]: 24 µg/mL (≈ 20.5 µM)

Compound: NCC1OC(OC2C(C(=O)Nc3ccc(-c4cn(CCCN5CCN(c6cc7c(cc6F)c(=O)c(C(=O)O)cn7C6CC6)CC5)nn4)cc3)OC(OC3C(O)C(N)CC(N)C3OC3OC(CN)C(O)C(O)C3N)C2O)C(N)C(O)C1O (stereo not drawn) [Compound 1b, N-(4-(1-(2-(ciprofloxacin)propyl)-1H-1,2,3-triazol-4-yl)-5″-phenyl)neomycin carboxamide]
- MIC B. subtilis ATCC 6633 [1]: 6 µg/mL (≈ 5.25 µM)
- MIC E. coli AG100A [2]: 1.5 µg/mL (≈ 1.31 µM)
- MIC E. coli ATCC 25922 [3]: 3 µg/mL (≈ 2.63 µM)
- MIC E. coli R477-100 [4]: 6 µg/mL (≈ 5.25 µM)
- MIC E. coli AG100B [5]: 12 µg/mL (≈ 10.5 µM)
- MIC MRSA ATCC 43300 [6]: 48 µg/mL (≈ 42 µM)

Compound: NCC1OC(OC2C(C(=O)Nc3ccc(-c4cn(CCCCCCN5CCN(c6cc7c(cc6F)c(=O)c(C(=O)O)cn7C6CC6)CC5)nn4)cc3)OC(OC3C(O)C(N)CC(N)C3OC3OC(CN)C(O)C(O)C3N)C2O)C(N)C(O)C1O (stereo not drawn) [Compound 1e, N-(4-(1-(2-(ciprofloxacin)hexyl)-1H-1,2,3-triazol-4-yl)-5″-phenyl)neomycin carboxamide]
- MIC B. subtilis ATCC 6633 [1]: 12 µg/mL (≈ 10.1 µM)
- MIC E. coli AG100A [2]: 1.5 µg/mL (≈ 1.27 µM)
- MIC E. coli ATCC 25922 [3]: 6 µg/mL (≈ 5.07 µM)
- MIC E. coli R477-100 [4]: 6 µg/mL (≈ 5.07 µM)
- MIC E. coli AG100B [5]: 12 µg/mL (≈ 10.1 µM)
- MIC MRSA ATCC 43300 [6]: 48 µg/mL (≈ 40.5 µM)

Compound: N-(4-(1-(4-((ciprofloxacin)methyl)benzyl)-1H-1,2,3-triazol-4-yl)-5″-phenyl)neomycin carboxamide [Compound 1h]
- MIC B. subtilis ATCC 6633 [1]: 6 µg/mL
- MIC E. coli AG100A [2]: 1.5 µg/mL
- MIC E. coli ATCC 25922 [3]: 12 µg/mL
- MIC E. coli R477-100 [4]: 6 µg/mL
- MIC E. coli AG100B [5]: 12 µg/mL
- MIC MRSA ATCC 43300 [6]: 12 µg/mL

Compound: NCC1OC(OC2C(C(=O)NCc3cn(CCN4CCN(c5cc6c(cc5F)c(=O)c(C(=O)O)cn6C5CC5)CC4)nn3)OC(OC3C(O)C(N)CC(N)C3OC3OC(CN)C(O)C(O)C3N)C2O)C(N)C(O)C1O (stereo not drawn) [Compound 1j, N-((1-(4-(ciprofloxacin)ethyl)-1H-1,2,3-triazol-4-yl)-5″-methyl)neomycin carboxamide]
- MIC B. subtilis ATCC 6633 [1]: 3 µg/mL (≈ 2.81 µM)
- MIC E. coli AG100A [2]: 1.5 µg/mL (≈ 1.41 µM)
- MIC E. coli ATCC 25922 [3]: 6 µg/mL (≈ 5.63 µM)
- MIC E. coli R477-100 [4]: 12 µg/mL (≈ 11.3 µM)
- MIC E. coli AG100B [5]: 12 µg/mL (≈ 11.3 µM)
- MIC MRSA ATCC 43300 [6]: 24 µg/mL (≈ 22.5 µM)

Compound: NCC1OC(OC2C(C(=O)Nc3ccc(-c4cn(CCN5CCN(c6cc7c(cc6F)c(=O)c(C(=O)O)cn7C6CC6)CC5)nn4)cc3)OC(OC3C(O)C(N)CC(N)C3OC3OC(CN)C(O)C(O)C3N)C2O)C(N)C(O)C1O (stereo not drawn) [Compound 1a, N-(4-(1-(2-(ciprofloxacin)ethyl)-1H-1,2,3-triazol-4-yl)-5″-phenyl)neomycin]
- MIC B. subtilis ATCC 6633 [1]: 6 µg/mL (≈ 5.32 µM)
- MIC E. coli AG100A [2]: 0.75 µg/mL (≈ 0.665 µM)
- MIC E. coli ATCC 25922 [3]: 6 µg/mL (≈ 5.32 µM)
- MIC E. coli R477-100 [4]: 12 µg/mL (≈ 10.6 µM)
- MIC E. coli AG100B [5]: 24 µg/mL (≈ 21.3 µM)
- MIC MRSA ATCC 43300 [6]: 48 µg/mL (≈ 42.5 µM)

Compound: NCC1OC(OC2C(C(=O)NCc3cn(CCOCCN4CCN(c5cc6c(cc5F)c(=O)c(C(=O)O)cn6C5CC5)CC4)nn3)OC(OC3C(O)C(N)CC(N)C3OC3OC(CN)C(O)C(O)C3N)C2O)C(N)C(O)C1O (stereo not drawn) [Compound 1n, N-((1-(2-(2-(ciprofloxacin)ethoxy)ethyl)-1H-1,2,3-triazol-4-yl)-5″-methyl)neomycin carboxamide]
- MIC B. subtilis ATCC 6633 [1]: 12 µg/mL (≈ 10.8 µM)
- MIC E. coli AG100A [2]: 1.5 µg/mL (≈ 1.35 µM)
- MIC E. coli ATCC 25922 [3]: 6 µg/mL (≈ 5.4 µM)
- MIC E. coli R477-100 [4]: 12 µg/mL (≈ 10.8 µM)
- MIC E. coli AG100B [5]: 12 µg/mL (≈ 10.8 µM)
- MIC MRSA ATCC 43300 [6]: 24 µg/mL (≈ 21.6 µM)

From patent publication US9149536B2, “Conjugated antimicrobial agents” (priority 2009, dated 2015)
